Source: ChEMBL document CHEMBL3045869, “Efficacy of fungicides with various modes of action in controlling the early stages of an Erysiphe necator-induced epidemic” (2010)
The source made the active and inactive calls. No cut-off for these calls is given here.

How the values were obtained:
[1] = test system: Erysiphe necator; test: Antifungal activity against Erysiphe necator biotype B assessed as disease severity at 0.625 g a.i./l applied 48 hr post-inoculation measured after 14 days by leaf-disk method relative to untreated-control; format: functional
[2] = test system: Erysiphe necator; test: Antifungal activity against Erysiphe necator biotype B assessed as disease severity at 0.625 g a.i./l applied 48 hr post-inoculation measured after 7 days by leaf-disk method relative to untreated-control; format: functional
[3] = test system: Erysiphe necator; test: Antifungal activity against Erysiphe necator biotype B assessed as number of spores at 0.625 g a.i./l applied 48 hr post-inoculation measured after 14 days by leaf-disk method (reference value: 43.5 x 10^3 cm'-2); format: functional
[4] = test system: Erysiphe necator; test: Antifungal activity against Erysiphe necator biotype B assessed as disease severity at 0.625 g a.i./l applied 4 days post-inoculation measured immediately during cycle 1 by leaf-disk method relative to untreated-control; format: functional
[5] = test system: Erysiphe necator; test: Antifungal activity against Erysiphe necator biotype B assessed as number of spores at 0.625 g a.i./l applied 4 days post-inoculation measured after 14 days during cycle 2 by leaf-disk method (reference value: 44.4 x 10^3 cm'-2); format: functional
[6] = test system: Erysiphe necator; test: Antifungal activity against Erysiphe necator biotype B assessed as AUDPC at 0.625 g a.i./l applied 4 days post-inoculation measured after 14 days during cycle 2 by leaf-disk method (reference value: 844); format: functional
[7] = test system: Erysiphe necator; test: Antifungal activity against Erysiphe necator biotype B assessed as number of spores at 0.625 g a.i./l applied 4 days post-inoculation measured after 14 days during cycle 1 by leaf-disk method (reference value: 35.9 x 10^3 cm'-2); format: functional
[8] = test system: Erysiphe necator; test: Antifungal activity against Erysiphe necator biotype B assessed as AUDPC at 0.625 g a.i./l applied 4 days post-inoculation measured after 14 days during cycle 1 by leaf-disk method (reference value: 695.6); format: functional
[9] = test system: Erysiphe necator; test: Antifungal activity against Erysiphe necator biotype B assessed as number of spores at 0.625 g a.i./l applied 13 days post-inoculation measured after 14 days during cycle 2 by leaf-disk method (reference value: 47.6 x 10^3 cm'-2); format: functional
[10] = test system: Erysiphe necator; test: Antifungal activity against Erysiphe necator biotype B assessed as AUDPC at 0.625 g a.i./l applied 13 days post-inoculation measured after 14 days during cycle 2 by leaf-disk method (reference value: 654); format: functional
[11] = test system: Erysiphe necator; test: Antifungal activity against Erysiphe necator biotype B assessed as disease severity at 0.625 g a.i./l applied 4 days post-inoculation measured after 14 days during cycle 1 by leaf-disk method relative to untreated-control; format: functional
[12] = test system: Erysiphe necator; test: Antifungal activity against Erysiphe necator biotype B assessed as AUDPC at 0.625 g a.i./l applied 48 hr post-inoculation measured after 14 days by leaf-disk method (reference value: 394); format: functional
[13] = test system: Erysiphe necator; test: Antifungal activity against Erysiphe necator biotype B assessed as reduction in disease severity at 0.5 g a.i./l applied 48 hr post-inoculation measured after 14 days by leaf-disk method relative to untreated-control; format: functional, organism-based
[14] = test system: Erysiphe necator; test: Antifungal activity against Erysiphe necator biotype B assessed as AUDPC at 0.5 g a.i./l applied 48 hr post-inoculation measured after 14 days by leaf-disk method (reference value: 394); format: functional
[15] = test system: Erysiphe necator; test: Antifungal activity against Erysiphe necator biotype B assessed as number of spores at 0.5 g a.i./l applied 48 hr post-inoculation measured after 14 days by leaf-disk method (reference value: 43.5 x 10^3 cm'-2); format: functional
[16] = test system: Erysiphe necator; test: Antifungal activity against Erysiphe necator biotype B assessed as reduction in mycelial growth at 0.5 g a.i./l applied 4 days post-inoculation measured after 11 days during cycle 2 by leaf-disk method relative to untreated-control; format: functional, organism-based
[17] = test system: Erysiphe necator; test: Antifungal activity against Erysiphe necator biotype B assessed as reduction in sporulation at 0.5 g a.i./l applied 4 days post-inoculation measured after 11 days during cycle 2 by leaf-disk method relative to untreated-control; format: functional, organism-based
[18] = test system: Erysiphe necator; test: Antifungal activity against Erysiphe necator biotype B assessed as disease severity at 0.5 g a.i./l applied 4 days post-inoculation measured immediately during cycle 1 by leaf-disk method relative to untreated-control; format: functional
[19] = test system: Erysiphe necator; test: Antifungal activity against Erysiphe necator biotype B assessed as number of spores at 0.5 g a.i./l applied 4 days post-inoculation measured after 14 days during cycle 2 by leaf-disk method (reference value: 44.4 x 10^3 cm'-2); format: functional
[20] = test system: Erysiphe necator; test: Antifungal activity against Erysiphe necator biotype B assessed as AUDPC at 0.5 g a.i./l applied 4 days post-inoculation measured after 14 days during cycle 2 by leaf-disk method (reference value: 844); format: functional
[21] = test system: Erysiphe necator; test: Antifungal activity against Erysiphe necator biotype B assessed as number of spores at 0.5 g a.i./l applied 4 days post-inoculation measured after 14 days during cycle 1 by leaf-disk method (reference value: 35.9 x 10^3 cm'-2); format: functional
[22] = test system: Erysiphe necator; test: Antifungal activity against Erysiphe necator biotype B assessed as AUDPC at 0.5 g a.i./l applied 4 days post-inoculation measured after 14 days during cycle 1 by leaf-disk method (reference value: 695.6); format: functional
[23] = test system: Erysiphe necator; test: Antifungal activity against Erysiphe necator biotype B assessed as disease severity at 0.5 g a.i./l applied 13 days post-inoculation measured after 6 days during cycle 2 by leaf-disk method relative to untreated-control; format: functional
[24] = test system: Erysiphe necator; test: Antifungal activity against Erysiphe necator biotype B assessed as number of spores at 0.5 g a.i./l applied 13 days post-inoculation measured after 14 days during cycle 2 by leaf-disk method (reference value: 47.6 x 10^3 cm'-2); format: functional
[25] = test system: Erysiphe necator; test: Antifungal activity against Erysiphe necator biotype B assessed as AUDPC at 0.5 g a.i./l applied 13 days post-inoculation measured after 14 days during cycle 2 by leaf-disk method (reference value: 654); format: functional
[26] = test system: Erysiphe necator; test: Antifungal activity against Erysiphe necator biotype B assessed as reduction in AUDPC at 0.5 g a.i./l applied 4 days post-inoculation measured after 11 days during cycle 2 by leaf-disk method relative to untreated-control; format: functional, organism-based
[27] = test system: Erysiphe necator; test: Antifungal activity against Erysiphe necator biotype B assessed as reduction in disease severity at 0.5 g a.i./l applied 4 days post-inoculation measured after 11 days during cycle 2 by leaf-disk method relative to untreated-control; format: functional, organism-based
[28] = test system: Erysiphe necator; test: Antifungal activity against Erysiphe necator biotype B assessed as disease severity at 0.5 g a.i./l applied 4 days post-inoculation measured after 14 days during cycle 1 by leaf-disk method relative to untreated-control; format: functional
[29] = test system: Erysiphe necator; test: Antifungal activity against Erysiphe necator biotype B assessed as disease severity at 0.5 g a.i./l applied 13 days post-inoculation measured after 14 days during cycle 2 by leaf-disk method relative to untreated-control; format: functional
[30] = test system: Erysiphe necator; test: Antifungal activity against Erysiphe necator biotype B assessed as AUDPC at 1 g a.i./l applied 4 days post-inoculation measured after 14 days during cycle 1 by leaf-disk method (reference value: 695.6); format: functional
[31] = test system: Erysiphe necator; test: Antifungal activity against Erysiphe necator biotype B assessed as inhibition of disease severity at 1 g a.i./l applied 48 hr post-inoculation measured after 14 days by leaf-disk method relative to control; format: functional; parameters: scale not given: the % may be the effect or the level left
[32] = test system: Erysiphe necator; test: Antifungal activity against Erysiphe necator biotype B assessed as inhibition of mycelial growth at 1 g a.i./l applied 48 hr post-inoculation measured after 14 days by leaf-disk method; format: functional, organism-based
[33] = test system: Erysiphe necator; test: Antifungal activity against Erysiphe necator biotype B assessed as number of spores at 1 g a.i./l applied 13 days post-inoculation measured after 14 days during cycle 2 by leaf-disk method (reference value: 47.6 x 10^3 cm'-2); format: functional
[34] = test system: Erysiphe necator; test: Antifungal activity against Erysiphe necator biotype B assessed as AUDPC at 1 g a.i./l applied 13 days post-inoculation measured after 14 days during cycle 2 by leaf-disk method (reference value: 654); format: functional
[35] = test system: Erysiphe necator; test: Antifungal activity against Erysiphe necator biotype B assessed as inhibition of mycelial growth at 1 g a.i./l applied 4 days post-inoculation measured on after 14 days during cycle 2 by leaf-disk method relative to untreated-control; format: functional, organism-based
[36] = test system: Erysiphe necator; test: Antifungal activity against Erysiphe necator biotype B assessed as disease severity at 1 g a.i./l applied 4 days post-inoculation measured on day 13 during cycle 1 by leaf-disk method relative to untreated-control; format: functional
[37] = test system: Erysiphe necator; test: Antifungal activity against Erysiphe necator biotype B assessed as disease severity at 1 g a.i./l applied 4 days post-inoculation measured immediately during cycle 1 by leaf-disk method relative to untreated-control; format: functional
[38] = test system: Erysiphe necator; test: Antifungal activity against Erysiphe necator biotype B assessed as disease severity at 1 g a.i./l applied 13 days post-inoculation measured after 14 days during cycle 2 by leaf-disk method relative to untreated-control; format: functional
[39] = test system: Erysiphe necator; test: Antifungal activity against Erysiphe necator biotype B assessed as disease severity at 1 g a.i./l applied 13 days post-inoculation measured after 6 days during cycle 2 by leaf-disk method relative to untreated-control; format: functional
[40] = test system: Erysiphe necator; test: Antifungal activity against Erysiphe necator biotype B assessed as reduction in mycelial growth at 1 g a.i./l applied 13 days post-inoculation measured after 14 days during cycle 2 by leaf-disk method relative to untreated-control; format: functional, organism-based
[41] = test system: Erysiphe necator; test: Antifungal activity against Erysiphe necator biotype B assessed as number of spores at 1 g a.i./l applied 4 days post-inoculation measured after 14 days during cycle 2 by leaf-disk method (reference value: 44.4 x 10^3 cm'-2); format: functional
[42] = test system: Erysiphe necator; test: Antifungal activity against Erysiphe necator biotype B assessed as AUDPC at 1 g a.i./l applied 4 days post-inoculation measured after 14 days during cycle 2 by leaf-disk method (reference value: 844); format: functional
[43] = test system: Erysiphe necator; test: Antifungal activity against Erysiphe necator biotype B assessed as number of spores at 1 g a.i./l applied 4 days post-inoculation measured after 14 days during cycle 1 by leaf-disk method (reference value: 35.9 x 10^3 cm'-2); format: functional
[44] = test system: Erysiphe necator; test: Antifungal activity against Erysiphe necator biotype B assessed as AUDPC at 1 g a.i./l applied 48 hr post-inoculation measured after 14 days by leaf-disk method (reference value: 394); format: functional
[45] = test system: Erysiphe necator; test: Antifungal activity against Erysiphe necator biotype B assessed as number of spores at 1 g a.i./l applied 48 hr post-inoculation measured after 14 days by leaf-disk method (reference value: 43.5 x 10^3 cm'-2); format: functional

CO/N=C(\C(=O)OC)c1ccccc1CO/N=C(\C)c1cccc(C(F)(F)F)c1
Activity [1]: 31.8%
Activity [2]: 3%
Activity [3]: 2.1 ×10³ /cm2
Activity [4]: 24%
Activity [5]: 0.06 ×10³ /cm2
AUDPC [6]: 0
Activity [7]: 0.2 ×10³ /cm2
AUDPC [8]: 459
Activity [9]: 1 ×10³ /cm2
AUDPC [10]: 6
Activity [11]: 60%
AUDPC [12]: 86

Fc1ccc(Oc2ccnc3cc(Cl)cc(Cl)c23)cc1 [QUINOXYFEN]
Activity [13]: Active
AUDPC [14]: 354
Activity [15]: 27.3 ×10³ /cm2
Activity [16]: inactive
Activity [17]: inactive
Activity [18]: 24%
Activity [19]: 36.9 ×10³ /cm2
AUDPC [20]: 6373
Activity [21]: 10.7 ×10³ /cm2
AUDPC [22]: 442
Activity [23]: 5%
Activity [24]: 23.2 ×10³ /cm2
AUDPC [25]: 361
Activity [26]: Active
Activity [27]: inactive
Activity [28]: 60%
Activity [29]: 89%

CC(C)(C)C(O)(CCc1ccc(Cl)cc1)Cn1cncn1 (stereo not given) [TEBUCONAZOLE]
AUDPC [30]: 56.6
Activity [31]: 0%
inhibition [32]: Active
Activity [33]: 30.4 ×10³ /cm2
AUDPC [34]: 612
inhibition [35]: Active
Activity [36]: 0%
Activity [37]: 25%
Activity [38]: 95%
Activity [39]: 50%
Activity [40]: inactive
Activity [41]: 0.02 ×10³ /cm2
AUDPC [42]: 0
Activity [43]: 0.2 ×10³ /cm2
AUDPC [44]: 0
Activity [45]: 0.8 ×10³ /cm2
